# Measured values: patent US12122763B2, “Substituted piperidines for androgen receptor degradation” (UBIX THERAPEUTICS, INC., priority 2020, dated 2024)
# Molecular target: T1, Androgen Receptor (AR) protein (Homo sapiens, UniProt P10275, T878A)
# T1 construct: endogenous in cells; host or cells: LNCaP
# Assay: Androgen Receptor (AR) protein degradation assay in LNCaP cells, western blotting
# Type: cell-based
# Details: 20 h; for inhibition at 0.01 µM: 0.01 μM compound; for inhibition at 0.1 µM: 0.1 μM compound; for inhibition at 1 µM: 1 μM compound; for inhibition at 10 µM: 10 μM compound
# Experimental: Experimental Example 1: Androgen Receptor (AR) Protein Degradation Assay
# After treating LNCaP cells with the synthesized Example compound, the amount of AR protein present in the cells was measured. The amount of AR protein was measured using western blotting detection method. The protocol of the experiment using LNCaP cells was as follows:
# [Culture] LNCaP cells were resuspended in RPMI1640 MEDIUM (Hyclone, SH30027.01), 10% FBS (Hyclone, SV30207.02), and 1% Penicillin-streptomycin (Welgene, LS 202-02) media to be 3×10^5/mL. Then, 1 mL each was seeded in a 12-well plate. After that, they were cultured for 3 days.
# [Compound treatment] 10 μl of 0.1, 1, 10, and 100 μM compound, which is the final compound treatment concentration and a 100× stock of 0.001, 0.01, 0.1, and 1 μM, was added in 1 ml media of each well, and 20 hours later, the cells were harvested.
# [Cell Lysis] Cell pellets were suspended using 1% SDS lysis buffer (50 mM Tris, 1 mM EDTA, 1% SDS, pH 8.0, 0.5 mM PMSF, 1× Protease/Phosphatase inhibitor Cocktail (Cell Signaling Technology, 5872s)), and sonication (70% AMP, 5 cycles (30 sec ON/59 sec OFF)) was performed. Cell lysate was obtained after centrifugation at 4° C., 15000 g, for 20 minutes.
# [Protein quantification] A BCA protein assay (SMART™ BCA Protein Assay Kit, iNtRON Biotechnology, 21071) was performed using a 96-well microplate. After adding 5 μl cell lysate and 5 μl 1% SDS lysis buffer to each well of the 96-well plate, 200 μl of BCA reagent (Reagent A:Reagent B=50:1) was additionally added. After incubation at 37° C. for 30 minutes, it was cooled at room temperature for 10 minutes. Then, absorbance was measured at a wavelength of 562 nm. The unknown protein concentration was measured using a BSA standard curve (0, 0.125, 0.25, 0.5, 1, 2 mg/ml). Western blotting samples were prepared by mixing cell lysate, 1% SDS lysis buffer, 4× Bolt™ LDS Sample buffer (Invitrogen, B0008), and 10× Bolt™ Sample Reducing Agent (Invitrogen, B0009) and boiling the mixture at 70° C. for 10 minutes.
# [Electrophoresis] After loading 8 μg of protein sample into each well of Bolt™ 4 to 12%, Bis-Tris, 1.0 mm Mini Protein Gel, 17-well (Invitrogen, NW04127BOX), Bolt™ MES SDS Running Buffer (Invitrogen, B0002) was used for electrophoresis at 200V (constant V) for 50 minutes.
# [Transfer] Using electrophoresis gel and Trans-Blot® Turbo™ Transfer Starter System (Bio-RAD, #17001918, Mini Nitrocellulose), transfer proceeded for 15 minutes under the condition of 1.3A (Constant A) and 25V (Limit V). To confirm protein transfer, 15 ml of Ponceau S solution (Sigma, P7170-1L) was used for staining for 1 minute, followed by washing to confirm the degree of transfer.
# [Blocking] Membranes for AR detection were blocked for 45 minutes with 5% skim milk/0.2% TBST (Skim milk: BD, 232100/20× TBS: Biosesang, TR2008-100-00/10% Tween 20 Solution: Bio-RAD, #161-0781). Membranes for GAPDH and β-actin detection were blocked for 45 minutes with Odyssey blocking buffer: 0.1% TBST=1:1 (Odyssey blocking buffer: Li-COR Biosciences, 927-50000).
# [Antibody and detection] The primary AR antibody (Androgen Receptor: CST, 5153s) was mixed with 5% skim milk/0.2% TBST at a ratio of 1:1000 and attached for 3 hours at room temperature. Primary β-actin antibody (GeneTex, 629630) was mixed with 5% BSA/0.2% TBST at a ratio of 1:2000 and attached for 3 hours at room temperature. Primary GAPDH antibody (GeneTex, 100118) was mixed with 5% BSA/0.2% TBST at a ratio of 1:2000 and attached for 3 hours at room temperature. After 3 hours, it was washed 3 times every 5 minutes using TBST (0.2% Tween 20). Anti-rabbit IgG, HRP-linked Antibody (CST, 7074s), secondary antibody for the AR antibody was mixed with 5% skim milk/0.2% TBST at a ratio of 1:5000 and attached for 45 minutes at room temperature. […]
# T1 sequence (P10275 whole entry T878A): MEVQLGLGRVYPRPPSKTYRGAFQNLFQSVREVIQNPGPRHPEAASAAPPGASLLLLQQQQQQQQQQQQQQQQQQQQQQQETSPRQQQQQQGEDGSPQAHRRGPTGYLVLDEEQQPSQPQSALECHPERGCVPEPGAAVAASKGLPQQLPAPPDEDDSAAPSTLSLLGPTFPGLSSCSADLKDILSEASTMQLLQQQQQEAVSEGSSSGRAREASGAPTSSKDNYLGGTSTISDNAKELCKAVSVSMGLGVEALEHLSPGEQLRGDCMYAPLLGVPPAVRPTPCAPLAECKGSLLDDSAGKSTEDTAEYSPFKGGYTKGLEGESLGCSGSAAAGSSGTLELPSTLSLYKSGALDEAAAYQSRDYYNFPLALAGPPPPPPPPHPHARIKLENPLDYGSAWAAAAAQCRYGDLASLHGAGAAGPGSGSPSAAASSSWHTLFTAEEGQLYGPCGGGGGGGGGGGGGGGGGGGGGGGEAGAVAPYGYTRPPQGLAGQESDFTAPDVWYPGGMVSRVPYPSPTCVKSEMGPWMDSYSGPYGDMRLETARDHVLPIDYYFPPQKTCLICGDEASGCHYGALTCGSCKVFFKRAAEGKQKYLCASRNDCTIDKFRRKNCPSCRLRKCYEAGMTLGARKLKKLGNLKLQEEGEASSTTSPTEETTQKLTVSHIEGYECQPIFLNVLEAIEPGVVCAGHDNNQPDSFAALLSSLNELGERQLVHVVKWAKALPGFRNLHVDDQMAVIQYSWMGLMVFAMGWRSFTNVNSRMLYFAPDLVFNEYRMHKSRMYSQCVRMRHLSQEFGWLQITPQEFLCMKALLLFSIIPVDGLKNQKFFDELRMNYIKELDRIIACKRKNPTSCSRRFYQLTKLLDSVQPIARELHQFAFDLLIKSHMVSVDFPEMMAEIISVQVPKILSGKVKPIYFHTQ
# T1 sequence (Q96SW2 whole entry partner): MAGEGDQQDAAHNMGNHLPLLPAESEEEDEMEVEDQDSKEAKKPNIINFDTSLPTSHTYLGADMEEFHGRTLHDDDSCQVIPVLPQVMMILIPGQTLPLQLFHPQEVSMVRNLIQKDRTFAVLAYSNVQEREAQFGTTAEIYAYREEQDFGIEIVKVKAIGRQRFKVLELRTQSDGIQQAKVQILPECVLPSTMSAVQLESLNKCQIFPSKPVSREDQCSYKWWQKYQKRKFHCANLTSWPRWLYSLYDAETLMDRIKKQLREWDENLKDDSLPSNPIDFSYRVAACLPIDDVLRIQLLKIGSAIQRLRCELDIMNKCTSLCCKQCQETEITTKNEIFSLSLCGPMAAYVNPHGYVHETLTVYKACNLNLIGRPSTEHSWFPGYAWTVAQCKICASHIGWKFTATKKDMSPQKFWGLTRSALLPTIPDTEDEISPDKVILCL
Compound,inhibition at 0.01 µM,inhibition at 0.1 µM,inhibition at 1 µM,inhibition at 10 µM
"N#Cc1ccc(N2CCC(C(=O)Nc3ccc(N4CCC(CN5CCN(C6CN(c7ccc8c(n7)CN(C7CCC(=O)NC7=O)C8=O)C6)CC5)CC4)cn3)CC2)cc1C(F)(F)F (centres unmarked) [Example 33, 1-(4-cyano-3-(trifluoromethyl)phenyl)-N-(5-(4-((4-(1-(6-(2,6-dioxopiperidin-3-yl)-5-oxo-6,7-dihydro-5H-pyrrolo[3,4-b]pyridin-2-yl)azetidin-3-yl)piperazin-1-yl)methyl)piperidin-1-yl)pyridin-2-yl)piperidine-4-carboxamide]",54%,90%,72%,
"N#Cc1ncc(N2CCC(C(=O)Nc3ccc(N4CCC(CN5CCN(CC6CCN(c7ccc8c(c7)CN(C7CCC(=O)NC7=O)C8=O)CC6)CC5)CC4)cn3)CC2)cc1C(F)(F)F (centres unmarked) [Example 145, 1-(6-cyano-5-(trifluoromethyl)pyridin-3-yl)-N-(5-(4-((4-((1-(2-(2,6-dioxopiperidin-3-yl)-1-oxoisoindolin-5-yl)piperidin-4-yl)methyl)piperazin-1-yl)methyl)piperidin-1-yl)pyridin-2-yl)piperidine-4-carboxamide]",20%,84%,88%,
"N#Cc1ccc(N2CCC(C(=O)Nc3ccc(N4CCC(CCN5CC6(CCN(c7ccc8c(c7)CN(C7CCC(=O)NC7=O)C8=O)CC6)C5)CC4)cn3)CC2)cc1C(F)(F)F (centres unmarked) [Example 138, 1-(4-cyano-3-(trifluoromethyl)phenyl)-N-(5-(4-(2-(7-(2-(2,6-dioxopiperidin-3-yl)-1-oxoisoindolin-5-yl)-2,7-diazaspiro[3.5]nonan-2-yl)ethyl)piperidin-1-yl)pyridin-2-yl)piperidine-4-carboxamide]",52%,95%,90%,
"N#Cc1ccc(N2CCC(C(=O)Nc3ccc(N4CCC(CN5CC(CN6CCN(c7ccc8c(c7)C(=O)N(C7CCC(=O)NC7=O)C8=O)CC6)C5)CC4)cn3)CC2)cc1C(F)(F)F (centres unmarked) [Example 79, 1-(4-cyano-3-(trifluoromethyl)phenyl)-N-(5-(4-((3-((4-(2-(2,6-dioxopiperidin-3-yl)-1,3-dioxoisoindolin-5-yl)piperazin-1-yl)methyl)azetidin-1-yl)methyl)piperidin-1-yl)pyridin-2-yl)piperidine-4-carboxamide]",31%,94%,95%,
"N#Cc1ccc(N2CCC(C(=O)Nc3ccc(CCC4CCN(CC5CCN(c6ccc7c(c6)C(=O)N(C6CCC(=O)NC6=O)C7=O)CC5)CC4)cn3)CC2)cc1C(F)(F)F (centres unmarked) [Example 133, 1-(4-cyano-3-(trifluoromethyl)phenyl)-N-(5-(2-(1-((1-(2-(2,6-dioxopiperidin-3-yl)-1,3-dioxoisoindolin-5-yl)piperidin-4-yl)methyl)piperidin-4-yl)ethyl)pyridin-2-yl)piperidine-4-carboxamide]",60%,93%,98%,
"N#Cc1ccc(N2CCC(C(=O)Nc3ccc(N4CCC(CN5CCC6(CC5)CN(c5ccc7c(c5)C(=O)N(C5CCC(=O)NC5=O)C7=O)C6)CC4)cn3)CC2)cc1C(F)(F)F (centres unmarked) [Example 63, 1-(4-cyano-3-(trifluoromethyl)phenyl)-N-(5-(4-((2-(2-(2,6-dioxopiperidin-3-yl)-1,3-dioxoisoindolin-5-yl)-2,7-diazaspiro[3.5]nonan-7-yl)methyl)piperidin-1-yl)pyridin-2-yl)piperidine-4-carboxamide]",45%,94%,98.5%,94.5%
"C[C@@H]1CN(CC2CCN(c3ccc4c(c3)C(=O)N(C3CCC(=O)NC3=O)C4=O)CC2)CCN1CC1CCN(c2ccc(NC(=O)C3CCN(c4ccc(C#N)c(C(F)(F)F)c4)CC3)nc2)CC1 (stereo partly drawn) [Example 23, 1-(4-cyano-3-(trifluoromethyl)phenyl)-N-(5-(4-(((2R)-4-((1-(2-(2,6-dioxopiperidin-3-yl)-1,3-dioxoisoindolin-5-yl)piperidin-4-yl)methyl)-2-methylpiperazin-1-yl)methyl)piperidin-1-yl)pyridin-2-yl)piperidine-4-carboxamide]",69%,98%,97%,
"C[C@H]1CN(C2CCN(c3ccc4c(n3)CN(C3CCC(=O)NC3=O)C4=O)CC2)CCN1CC1CCN(c2ccc(NC(=O)C3CCN(c4ccc(C#N)c(C(F)(F)F)c4)CC3)nc2)CC1 (stereo partly drawn) [Example 45, 1-(4-cyano-3-(trifluoromethyl)phenyl)-N-(5-(4-(((2S)-4-(1-(6-(2,6-dioxopiperidin-3-yl)-5-oxo-6,7-dihydro-5H-pyrrolo[3,4-b]pyridin-2-yl)piperidin-4-yl)-2-methylpiperazin-1-yl)methyl)piperidin-1-yl)pyridin-2-yl)piperidine-4-carboxamide]",66%,95%,87%,
"N#Cc1ccc(N2CCC(C(=O)Nc3ccc(OC4CCN(CC5CN(c6ccc7c(c6)C(=O)N(C6CCC(=O)NC6=O)C7=O)C5)CC4)cn3)CC2)cc1C(F)(F)F (centres unmarked) [Example 171, 1-(4-cyano-3-(trifluoromethyl)phenyl)-N-(5-((1-((1-(2-(2,6-dioxopiperidin-3-yl)-1,3-dioxoisoindolin-5-yl)azetidin-3-yl)methyl)piperidin-4-yl)oxy)pyridin-2-yl)piperidine-4-carboxamide]",69%,93%,95%,
"N#Cc1ccc(N2CCC(C(=O)Nc3ccc(N4CCN(CC5CCN(C(=O)CNc6ccc7c(c6)C(=O)N(C6CCC(=O)NC6=O)C7=O)CC5)CC4)cn3)CC2)cc1C(F)(F)F (centres unmarked) [Example 130, 1-(4-cyano-3-(trifluoromethyl)phenyl)-N-(5-(4-((1-((2-(2,6-dioxopiperidin-3-yl)-1,3-dioxoisoindolin-5-yl)glycyl)piperidin-4-yl)methyl)piperazin-1-yl)pyridin-2-yl)piperidine-4-carboxamide]",78%,95%,95%,93%
"N#Cc1ccc(N2CCC(C(=O)Nc3ccc(CCN4CCN(CC5CCN(c6ccc7c(c6)C(=O)N(C6CCC(=O)NC6=O)C7=O)CC5)CC4)cn3)CC2)cc1C(F)(F)F (centres unmarked) [Example 166, 1-(4-cyano-3-(trifluoromethyl)phenyl)-N-(5-(2-(4-((1-(2-(2,6-dioxopiperidin-3-yl)-1,3-dioxoisoindolin-5-yl)piperidin-4-yl)methyl)piperazin-1-yl)ethyl)pyridin-2-yl)piperidine-4-carboxamide]",69%,96%,97%,
"N#Cc1ccc(N2CCC(C(=O)Nc3ccc(OCCN4CCN(CC5CCN(c6ccc7c(c6)C(=O)N(C6CCC(=O)NC6=O)C7=O)CC5)CC4)cn3)CC2)cc1C(F)(F)F (centres unmarked) [Example 168, 1-(4-cyano-3-(trifluoromethyl)phenyl)-N-(5-(2-(4-((1-(2-(2,6-dioxopiperidin-3-yl)-1,3-dioxoisoindolin-5-yl)piperidin-4-yl)methyl)piperazin-1-yl)ethoxy)pyridin-2-yl)piperidine-4-carboxamide]",73%,97%,99%,
